Measurements published in patent publication US20050049210A1, “Methods for the controlled delivery of pharmacologically active compounds” (IDEXX Laboratories, Inc., priority 2003, published 2005).

Legend:
[1] = Solubility of fatty acid salt in water immiscible solvent; type: physicochemical; conditions: amine group neutralized with linoleic acid, in isopropyl myristate
Source text: Oxytetracycline has one tertiary amine group, and the hydrochloride salt of oxytetracycline is readily soluble in water. Adding one mole of fatty acid to one mole of oxytetracycline creates a salt that is more soluble than unmodified oxytetracycline in isopropyl myristate.
When the two amine groups of tilmicosin are neutralized with any of several fatty acids (such as, for example, decanoic C10, lauric C12, myristic C14, palmitic C16, stearic C18, oleic C18, elaidic C18, linoleic C18, and erucic C22, sebacic, dodecanedioic), the resulting salt is soluble in pharmaceutically-acceptable water immiscible solvents. When a formulation of the salt (tilmicosin-linoleic acid) is sealed in a dialysis cassette and place in saline, the tilmicosin salt remains a cohesive mass, and tilmicosin is slowly released from the bag. The rate of release is a function of the chain length of the fatty acid, the solvent, and the tilmicosin-fatty acid salt concentration.
Roxithromycin is effective against a broad range of bacteria, and is used for the treatment of respiratory diseases in cattle. The amine group of roxithromycin can be neutralized with linoleic acid in isopropyl myristate, and a clear solution is obtained at 200 mg/ml.
Terbinafine is a specific inhibitor of squaline epoxidase, a key enzyme in fungal ergosterol biosynthesis. […]

[2] = Solubility of salt in water; type: physicochemical; conditions: linoleic acid salt
Experimental: Terbinafine is a specific inhibitor of squaline epoxidase, a key enzyme in fungal ergosterol biosynthesis. The amine group of terbinafine was neutralized with linoleic acid in ispropyl myristate, resulting in a clear solution at 150 mg/ml.

dogs = conditions: tilmicosin in conventional form; cited from earlier work

| concentration at which a clear solution is obtained [1] [µg/mL] | solubility of the resulting salt in water [2] | Compound | dose normally lethal in dogs (dogs) [mg/kg] |
| --- | --- | --- | --- |
| 200000 | – | CC[C@H]1OC(=O)[C@H](C)[C@@H](OC2CC(C)(OC)C(O)C(C)O2)[C@H](C)[C@@H](OC2OC(C)CC(N(C)C)C2O)[C@](C)(O)C[C@@H](C)/C(=N\OCOCCOC)[C@H](C)[C@@H](O)[C@]1(C)O (stereo partly shown) [roxithromycin, Roxithromycin] | – |
| 150000 | highly insoluble | CN(C/C=C/C#CC(C)(C)C)Cc1cccc2ccccc12 [terbinafine, Terbinafine] | – |
| – | – | Tilmicosin | 50 |
